This passage reports T/C results from PubChem BioAssay AID264 (DTP/NCI, 2004).

For this test, the system named is nude mice, LX-1 lung xenograft intrarenal, tumor weight T/C. Briefly: NCI In Vivo Anticancer Drug Screen. Data for tumor model Human Lung LX-1 Xenograft (intrarenal inoculation) in NU/NU Swiss (nude) mice. Conditions: endpoint: mean tumor weight change, higher = larger tumour. In a few lines: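 In vivo, transplantable tumor; compound vs vehicle arms; tumor size measured; value = T/C.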
Background: Xenograft models place foreign cells or tissue in a host animal.

[1] abbreviates: dose: 100.0 mg/kg/injection, schedule: Q04DX003 (sc), vehicle: saline with Tween-80.
Setting [2] is: dose: 200.0 mg/kg/injection, schedule: Q04DX003 (sc), vehicle: saline with Tween-80.
Setting [3] is: dose: 75.0 mg/kg/injection, schedule: Q04DX003 (sc), vehicle: saline with Tween-80.
The mark [4] stands for this setting: dose: 150.0 mg/kg/injection, schedule: Q04DX003 (sc), vehicle: saline with Tween-80.
Setting [5] is: dose: 300.0 mg/kg/injection, schedule: Q04DX003 (sc), vehicle: saline with Tween-80.
Setting [6] is: dose: 600.0 mg/kg/injection, schedule: Q04DX003 (sc), vehicle: saline with Tween-80.
The mark [7] stands for this setting: dose: 200.0 mg/kg/injection, schedule: Q04DX003 (sc), vehicle: Klucel (hydroxypropylcellulose) (HPC).
Where [8] appears, read: dose: 25.0 mg/kg/injection, schedule: Q04DX003 (sc), vehicle: Klucel (hydroxypropylcellulose) (HPC).
Setting [9] is: dose: 50.0 mg/kg/injection, schedule: Q04DX003 (sc), vehicle: Klucel (hydroxypropylcellulose) (HPC).
[10] abbreviates: dose: 100.0 mg/kg/injection, schedule: Q04DX003 (sc), vehicle: Klucel (hydroxypropylcellulose) (HPC).

Where “and” joins values, the source holds several entries; their conditions need not be identical. Equal entries are not always repeated. Inconclusive results are not listed. Numbered stars: 1 amine (or outer) side, 2 acyl side, 3 side chain; on linkers, the order of the positions; unused ones are H or OH. Square brackets hold non-standard residues; d marks the D form. Peptide text beside a SMILES is read from it. * marks the point of attachment. X2 = CCC(=O)CC1CC(C)CC(C(=O)[*:2])N1[*:1]; X1 = CCCCCCCCC(C)C(=O)*; Aib = CC(C)(N)C(=O)O; X3 = CC(CN(C)CCO)N*

As to `COc1ccc(OC)c(Cc2cnc3nc(N)nc(N)c3c2C)c1`, the T/C was 82 % of control (dose: 75.0 mg/kg/injection, schedule: Q04DX003 (sc), vehicle: water); 80 % of control (dose: 150.0 mg/kg/injection, schedule: Q04DX003 (sc), vehicle: water); 94 % of control (dose: 300.0 mg/kg/injection, schedule: Q04DX003 (sc), vehicle: water); 94 % of control (dose: 600.0 mg/kg/injection, schedule: Q04DX003 (sc), vehicle: water).

For the compound `NC(=S)N/N=C/c1ccc(O)cn1`, the T/C is 102 % of control (dose: 50.0 mg/kg/injection, schedule: Q04DX003 (sc), vehicle: saline with Tween-80); 94 % of control under setting [1]; 96 % of control under setting [2]; 64 % of control (dose: 400.0 mg/kg/injection, schedule: Q04DX003 (sc), vehicle: saline with Tween-80).

In the case of `CCCCCCCCC(C)C(=O)N1CCCC1C(=O)N1C(CC(=O)CC)CC(C)CC1C(=O)NC(C)C(=O)NC(C)(C)C(=O)NC(C)(C)C(=O)NC(C(=O)NC(C)C(=O)NC(C)(C)C(=O)NC(C)(C)C(=O)NC(C)CN(C)CCO)C(C)CC` (centres undefined) (X1-P[X2]A[Aib][Aib]IA[Aib][Aib]-X3; configuration not given here), the T/C (dose: 5.0 mg/kg/injection, schedule: Q04DX003 (sc), vehicle: Klucel (hydroxypropylcellulose) (HPC)) was 270 % of control.

`COc1ccc(C(=O)C(CN(C)C)CN(C)C)cc1`: the T/C is 68 % of control (dose: 12.5 mg/kg/injection, schedule: Q04DX003 (sc), vehicle: saline); 113 % of control (dose: 25.0 mg/kg/injection, schedule: Q04DX003 (sc), vehicle: saline); 64 % of control (dose: 50.0 mg/kg/injection, schedule: Q04DX003 (sc), vehicle: saline).

Turning to `OCC1OC(n2cnc3c(NO)ncnc32)C(O)C1O` (centres undefined), the T/C by setting is: (dose: 300.0 mg/kg/injection, schedule: Q04DX003 (sc), vehicle: Klucel (hydroxypropylcellulose) (HPC)) 105 % of control; (dose: 600.0 mg/kg/injection, schedule: Q04DX003 (sc), vehicle: Klucel (hydroxypropylcellulose) (HPC)) 102 % of control; (dose: 1200.0 mg/kg/injection, schedule: Q04DX003 (sc), vehicle: Klucel (hydroxypropylcellulose) (HPC)) 86 % of control; (dose: 2400.0 mg/kg/injection, schedule: Q04DX003 (sc), vehicle: Klucel (hydroxypropylcellulose) (HPC)) 68 % of control.

Regarding `CC1=C[S+](c2ccccc2)c2cccc3cc4ccccc4c1c23` (centres undefined), the T/C (dose: 2.0 mg/kg/injection, schedule: Q04DX003 (sc), vehicle: saline with Tween-80) was 102 % of control.

On to `O=C1CN(Cc2ccc3c(c2)OCO3)NO1`, for which the T/C by setting is: under setting [3], 63 % of control; under setting [4], 76 % of control; under setting [5], 63 % of control; under setting [6], 46 % of control.

Consider `CCCCOCN(COCCCC)C(C)Cc1ccccc1` (centres undefined), for which the T/C under setting [1] was 71 % of control; the T/C under setting [2] is 85 % of control; the T/C (dose: 800.0 mg/kg/injection, schedule: Q04DX003 (sc), vehicle: saline with Tween-80) was 121 % of control.

Regarding `CCOC(=O)C(N)C[S][Sn]([CH3])([CH3])[Cl]` (centres undefined), the T/C (dose: 18.75 mg/kg/injection, schedule: Q04DX003 (sc), vehicle: saline) was 52 % of control; the T/C (dose: 37.5 mg/kg/injection, schedule: Q04DX003 (sc), vehicle: saline) is 57 % of control; the T/C (dose: 75.0 mg/kg/injection, schedule: Q04DX003 (sc), vehicle: saline) was 54 % of control.

On to `C[C@H]1C[C@@H]2[C@H]([C@@H](O)C[C@@]3(C)[C@H]2CC[C@]3(O)C(=O)CO)[C@@]2(C)C=CC(=O)C=C12`, for which the T/C is, setting by setting: under setting [7], 76 % of control; (dose: 400.0 mg/kg/injection, schedule: Q04DX003 (sc), vehicle: Klucel (hydroxypropylcellulose) (HPC)) 58 % of control; (dose: 800.0 mg/kg/injection, schedule: Q04DX003 (sc), vehicle: Klucel (hydroxypropylcellulose) (HPC)) 59 % of control.

`Cn1c2nc(=O)n(-c3ccccc3)c(=O)c-2nc2c1CCCC2`: the T/C is 71 % of control under setting [3] and 101 % of control under setting [4].

On to `O=C(C#Cc1ccccc1)c1ccccc1`, for which the T/C runs as follows: (dose: 18.75 mg/kg/injection, schedule: Q04DX003 (sc), vehicle: Klucel (hydroxypropylcellulose) (HPC)) 87 % of control; under setting [8], 111 % of control; (dose: 37.5 mg/kg/injection, schedule: Q04DX003 (sc), vehicle: Klucel (hydroxypropylcellulose) (HPC)) 96 % of control; under setting [9], 90 % of control; (dose: 75.0 mg/kg/injection, schedule: Q04DX003 (sc), vehicle: Klucel (hydroxypropylcellulose) (HPC)) 105 % of control; under setting [10], 113 % of control. Also, the T/C by setting is: (dose: 150.0 mg/kg/injection, schedule: Q04DX003 (sc), vehicle: Klucel (hydroxypropylcellulose) (HPC)) 65 % of control; under setting [7], 81 % of control.

Take `CC1(C)N=C(N)N=C(N)N1c1ccc(CCCCc2ccc(S(=O)(=O)F)cc2Cl)c(Cl)c1`: where the note is “dose: 12.5 mg/kg/injection, schedule: Q01DX010 (sc), vehicle: saline”, the T/C was 78 % of control.

As for `COc1ccc(Cl)[n+]([O-])n1`, the T/C was 83 % of control under setting [8], 60 % of control under setting [9] and 80 % of control under setting [10].

`COC12C(COC(N)=O)C3=C(C(=O)C(C)=C(N)C3=O)N1CC1C2N1C` (centres undefined): the T/C (dose: 8.0 mg/kg/injection, schedule: Q01DX010 (sc), vehicle: saline) was 1 % of control and -17 % of control.

Turning to `CC12CCC3C(CCC4CC(OC(=O)Cc5ccc(N(CCCl)CCCl)cc5)CCC43C)C1CCC(=O)N2` (centres undefined), the T/C is, setting by setting: (dose: 25.0 mg/kg/injection, schedule: Q04DX003 (sc), vehicle: saline with Tween-80) 43 % of control and 66 % of control; under setting [2], 8 % of control and 9 % of control.

Turning to `C=CS(=O)(=O)c1ccccc1`, the T/C by setting is: (dose: 25.0 mg/kg/injection, schedule: Q01DX010 (sc), vehicle: saline) 57 % of control; (dose: 50.0 mg/kg/injection, schedule: Q01DX010 (sc), vehicle: saline) 65 % of control; (dose: 100.0 mg/kg/injection, schedule: Q01DX010 (sc), vehicle: saline) 29 % of control.

Consider `NS(=O)(=O)OCCCCCCCOS(N)(=O)=O`, for which the T/C runs as follows: (dose: 150.0 mg/kg/injection, schedule: Q04DX003 (ip), vehicle: saline with Tween-80) 109 % of control; (dose: 300.0 mg/kg/injection, schedule: Q04DX003 (ip), vehicle: saline with Tween-80) 123 % of control.

As to `CC(C)NCC(O)COc1ccc(O)c(O)c1` (centres undefined), the T/C runs as follows: (dose: 100.0 mg/kg/injection, schedule: Q04DX003 (sc), vehicle: saline) 104 % of control; (dose: 200.0 mg/kg/injection, schedule: Q04DX003 (sc), vehicle: saline) 84 % of control; (dose: 400.0 mg/kg/injection, schedule: Q04DX003 (sc), vehicle: saline) 114 % of control; (dose: 800.0 mg/kg/injection, schedule: Q04DX003 (sc), vehicle: saline) 54 % of control.

For `O=C(Nc1cccc(Cl)c1)ON1C(=O)C2C(C1=O)C1(Cl)C(Cl)C(Cl)C2(Cl)C1(Cl)Cl` (centres undefined), the T/C by setting is: under setting [5], 81 % of control; under setting [6], 85 % of control; (dose: 1200.0 mg/kg/injection, schedule: Q04DX003 (sc), vehicle: saline with Tween-80) 83 % of control.

Turning to `O=C1C(NCCO)=C(N2CC2)C(=O)C(NCCO)=C1N1CC1`, the T/C by setting is: (dose: 0.5 mg/kg/injection, schedule: Q04DX003 (ip), vehicle: saline) 117 % of control; (dose: 1.5 mg/kg/injection, schedule: Q04DX003 (sc), vehicle: suspension in saline) 203 % of control; (dose: 2.0 mg/kg/injection, schedule: Q04DX003 (ip), vehicle: saline) 61 % of control; (dose: 4.0 mg/kg/injection, schedule: Q04DX003 (ip), vehicle: saline) 77 % of control.

For the compound `CCCCCCCCSC1=C(Cl)C(=O)C(OC)=C(OC)C1=O`, the T/C reads like this: (dose: 18.0 mg/kg/injection, schedule: Q04DX003 (sc), vehicle: saline with Tween-80) 82 % of control; (dose: 36.0 mg/kg/injection, schedule: Q04DX003 (sc), vehicle: saline with Tween-80) 81 % of control; (dose: 144.0 mg/kg/injection, schedule: Q04DX003 (sc), vehicle: saline with Tween-80) 57 % of control.

As to `CCOC(=O)C1=C(C#N)C2(CCC(OCc3ccccc3)CC2)C(=O)O1` (centres undefined), the T/C runs as follows: (dose: 300.0 mg/kg/injection, schedule: Q04DX003 (sc), vehicle: suspension in saline) 106 % of control; (dose: 600.0 mg/kg/injection, schedule: Q04DX003 (sc), vehicle: suspension in saline) 111 % of control; (dose: 1200.0 mg/kg/injection, schedule: Q04DX003 (sc), vehicle: suspension in saline) 77 % of control.
